Laboratory results taken from patent US20240277743A1, “RESTORING PHYSIOLOGY WITH SMALL MOLECULE MIMICS OF MISSING PROTEINS” (The Board of Trustees Of The University Of Illinois, priority 2014, published 2024).

Assays:
trk1Δtrk2Δ cells = assay: Cell viability assay (propidium iodide staining); assay type: cell-based, Saccharomyces cerevisiae; settings: 125 nM AmB, 24 hours, FIG. 2H
Procedure: Cell viability assay. WT and trk1 Δtrk2Δ cells were inoculated in high potassium (100 mM KCl) YPAD. Starter cultures were grown at 30° ° C. for 14-15 hours. Cells were then cultured in high potassium YPAD at 30° ° C. for 2-2.5 hours. 100 μL of a 0.25 mg/mL propidium iodide (PI. Sigma-Aldrich P4864) solution was prepared. After 2-2.5 hours, cells were centrifuged at 800 g for 5 minutes, at 23° C. The supernatant was decanted, cells were resuspended in 40 mL of high potassium YPAD, vortexed, and centrifuged. The wash step was repeated. After pouring off the supernatant, cells were resuspended in 15 mL of high potassium YPAD, vortexed, and diluted to an OD600 of 0.5. To set one (WT, WT+PI, trk1Δtrk2Δ, and trk1Δtrk2Δ+PI) and set two (WT+PI+AmB, trk1 Δtrk2Δ+PI+AmB), 26.4 μL of DMSO were added to 1 mL aliquots of WT and trk1Δtrk2Δ, and incubated at 30° C. for 30 minutes. A 1% w/v low gelling temperature agarose (Sigma-Aldrich A9414) was prepared in normal potassium (10 mM) YPAD. When set one incubation completed, cells were pulse centrifuged, supernatant was removed, and resuspended in normal potassium YPAD to wash. […] The total number of PI stained cells was subtracted from the total cells recorded, and divided by total cells to give % viability. At least 200 cells were recorded per treatment group and 4 independent sets of data were obtained.

trk1Δtrk2Δ yeast = assay: Sustainable restoration of cell growth assay (max OD600, doubling time); assay type: cell-based, Saccharomyces cerevisiae
Procedure: Sustainable restoration of cell growth assay. Wild type and trk1 Δtrk2Δ yeast were treated as described in the functional complementation experiment described above, with the trk1 Δtrk2Δ yeast treated with 125 nM AmB. The OD600 was measured every hour for 24 hours, including a reading at time zero. Wild type yeast were then streaked onto normal potassium YPAD agar plates and AmB-rescued TrklAtrk2Δ yeast were streaked onto AmB-containing (0.125 μM) normal potassium YPAD agar plates. These agar plates were then incubated at 30° ° C. for about 48 hours. The same procedure was then repeated for over 42 days, measuring the max OD600 and doubling time every three days. Doubling time was determined using the following equation: Td=(t2−t1)×[log(2)/log (q2/q1)], where t2 and t1 represent the time at the two points and q2 and q1 represent the OD600 values in the exponential phase of growth (OD600 from 0.2 to 0.6).

[1] = test system: CuFi-1 epithelial monolayers (CFTR-deficient human lung epithelia); assay: Airway surface liquid (ASL) height studies by confocal fluorescence microscopy; assay type: cell-based
Procedure: Human cell lines and growth conditions. NuLi and CuFi-1 cells were cultured at the air-liquid interface as previously described, using a 1:1 mixture of DMEM: Ham's F-12 supplemented with 2% v/v Ultroser G (Crescent Chemical). Zabner, J. et al. Am. J. Physiol. Lung Cell. Mol. Physiol. 284, […]-[…] (2003). The membrane supports used were Millicell 0.4 μm PCF inserts (Millipore PIHP01250) for Ussing chamber studies, Corning Costar 0.4 μm Transwell Clear Polyester Membrane inserts (Corning 3470) for rotational mucus transport studies, and Millicell 1.0 μm PCF inserts (Millipore PIRP15R48) for ASL studies. These membranes were allowed to mature at an air-liquid interface for a minimum of 14 days to reach full differentiation. Airway surface liquid (ASL) height studies. ASL height was studied using an established fluorescent dye assay. Worthington, E. N. et al. Methods Mol. Biol. 742, 77-92 (2011); Myerburg. M. M. et al. Am. J. Respir. Cell. Mol. Biol. 42, 676-684 (2010). Mature, differentiated membranes were grown on Millicell […] polyethylene terephthalate hanging cell culture inserts. Wild type (NuLi) lung epithelia were treated with perfluorocarbon (FC-72) vehicle, and CuFi epithelia were treated with vehicle or 500 nM AmB and incubated for 24 hours at 37° ° C. On the day of imaging. 2.5 μL of a 70 kDa Texas Red-dextran conjugate (Molecular Probes) solution in PBS was added to the apical side of the membranes, followed by 100 μL of FC-770 to prevent evaporation. These were placed on 100 μL of PBS on a 10 mm glass bottom Fluorodish for imaging (World Precision Instruments). Membranes were imaged immediately after dye addition and again at 24 hours to examine dye absorption. Three Z-stack images per membrane in biological n=6 were taken on an Zeiss LSM700 confocal microscope at 40× oil immersion. These images were analyzed using ImageJ to determine the area of fluorescence in the left hand 200-micron width of each image. Images were converted to 8-bit, Gaussian Blur was applied, and made binary. The parameters for Analyze Particles were particles from 1-Infinity μm^2 in size and from 0%-100% circularity.

## C[C@@H]1[C@H](O)[C@@H](C)/C=C/C=C/C=C/C=C/C=C/C=C/C=C/[C@H](O[C@@H]2O[C@H](C)[C@@H](O)[C@H](N)[C@@H]2O)C[C@@H]2O[C@](O)(C[C@@H](O)C[C@@H](O)[C@H](O)CC[C@@H](O)C[C@@H](O)CC(=O)O[C@H]1C)C[C@H](O)[C@H]2C(=O)O [AmB, amphotericin B]
trk1Δtrk2Δ cells
  cell viability of AmB-rescued trk1Δtrk2Δ cells versus wild type: Equivalent levels of cell viability
trk1Δtrk2Δ yeast; 125 nM AmB
  doubling time of AmB-rescued trk1Δtrk2Δ cells relative to wild type: 1.7 times longer
trk1Δtrk2Δ yeast; 125 nM AmB, passed every 3 days for over a month, FIG. 2I
  sustainability of cell growth of AmB-rescued trk1Δtrk2Δ cells: sustained, vigorous cell growth
trk1Δtrk2Δ yeast; liquid culture after 24 h, versus wild type, FIG. 2G
  maximum cell density (max OD600) of treated trk1Δtrk2Δ cells: matched that of the wild type
[1]; 500 nM
  apical surface liquid (ASL) volume of CF epithelia: normal ASL volume was restored
[1]; 500 nM AmB, 24 hours, FIGS. 5A, 5B
  ASL height of CuFi-1 epithelia, compound added apically: normal ASL height was restored
[1]; CuFi-1 epithelia, FIG. 5C
  dose dependence of ASL restoration: dose-dependent fashion
  optimal dose for ASL restoration: 0.5 µM
[1]; FIG. 5B
  ASL height of CuFi-1 epithelia, compound added to the basolateral surface: no increase in ASL height
